Results as given in patent publication US7923561B2 (Hoffmann-La Roche Inc., priority 2006, dated 2011).

How the values were obtained:
[1] = biological target: T1, recombinant human 5-HT5A receptor (Homo sapiens, UniProt P47898); experiment: [3H]LSD radioligand binding assay, membranes of HEK-EBNA cells transiently expressing 5-HT5A receptors; settings: [3H]LSD approx. 1 nM, SPA beads, 120 min at room temperature; Ki from IC50 by Cheng-Prussoff equation
T1 construct: expressed in transfected cells; host or cells: HEK-EBNA (Human Embryonic Kidney-EBNA) cells, transient cDNA expression, membranes
Experimental: A [^3H]LSD radioligand binding assay was used to determine the affinity of the compounds for the recombinant human 5-HT5A receptor, in membranes from transiently (cDNA) expressed 5-HT5A receptors in Human Embryonic Kidney-EBNA (HEK-EBNA) cells. Assay buffer consisted of Tris (50 mM) buffer containing 1 mM EGTA, 10 mM MgCl2 (pH 7.4) and 10 μM pargyline. The binding assay was carried out in 96-well-plates in the presence of [^3H]LSD (approximately 1 nM), approximately 2 μg/well of membrane protein, and 0.5 mg of Ysi-poly-1-lysine SPA beads in a final volume of 200 μl of buffer. Non-specific binding was defined using methiothepin 2 μM. Compounds were tested at 10 concentrations. All assays were conducted in duplicate and repeated at least two times. Assay plates were incubated for 120 min at room temperature before centrifugation. Bound ligand was determined using a Packard Topcount scintillation counter. IC50 values were calculated using a non-linear curve fitting program and Ki values calculated using the Cheng-Prussoff equation.

T1 sequence (P47898 whole entry): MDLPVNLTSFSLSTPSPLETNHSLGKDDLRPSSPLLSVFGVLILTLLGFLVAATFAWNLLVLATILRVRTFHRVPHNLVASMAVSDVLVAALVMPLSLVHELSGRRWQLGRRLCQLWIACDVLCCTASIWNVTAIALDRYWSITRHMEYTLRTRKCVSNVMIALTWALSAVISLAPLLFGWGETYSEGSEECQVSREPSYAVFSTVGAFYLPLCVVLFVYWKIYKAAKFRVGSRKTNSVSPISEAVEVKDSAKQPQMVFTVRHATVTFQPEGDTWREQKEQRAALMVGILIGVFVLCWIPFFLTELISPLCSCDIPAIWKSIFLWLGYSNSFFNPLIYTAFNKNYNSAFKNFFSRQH

melting point [°C]	Ki [1] [nM]	SMILES
176	33.4	O=C(c1cccs1)c1cccc2nc(N[C@@H]3CCc4ccccc43)ccc12 [Example 102, [2-((R)-Indan-1-ylamino)-quinolin-5-yl]-thiophen-2-yl-methanone]
160	678	O=C(c1ccc(CN2CCOCC2)cc1)c1cccc2nc(N[C@@H]3CCc4ccccc43)ccc12 [Example 103, [2-((R)-Indan-1-ylamino)-quinolin-5-yl]-(4-morpholin-4-ylmethyl-phenyl)-methanone]
194	3.64	ON=C(c1cccs1)c1cccc2nc(N[C@@H]3CCc4ccccc43)ccc12 [Example 104, [2-((R)-Indan-1-ylamino)-quinolin-5-yl]-thiophen-2-yl-methanone oxime]
167	23.2	ON=C(c1ccc(CN2CCOCC2)cc1)c1cccc2nc(N[C@@H]3CCc4ccccc43)ccc12 [Example 105, [2-((R)-Indan-1-ylamino)-quinolin-5-yl]-(4-morpholin-4-ylmethyl-phenyl)-methanone oxime]
